The values below come from the RepoRT retention time repository (doi:10.1021/acs.analchem.2c02893).

The series in a line: RP, Thermo Scientific Acclaim RSLC 120 C18, 100 × 2.1 mm, 2.2 µm, 30 °C, 0.2 mL/min, estimated dead time 1.1 min; A: 90% water + 10% methanol + 0.01% formic acid + 5 mM ammonium formate, pH 3.61; B: methanol + 0.01% formic acid + 5 mM ammonium formate, pH 3.61; gradient (min/%B) 0/1 1/1 2/39 13/99.9 15/99.9 15.1/1 20.1/1. The following applies: stereoisomer not certain.

In the case of `CNC(=O)Oc1cccc2c1OC(C)(C)C2` [Carbofuran], the LC retention time is 7.01 min.

As for `CCOP(=S)(OCC)SCSc1ccc(Cl)cc1` [Carbophenothion], the LC retention time is 12.9 min.

Turning to `CCCCN(CCCC)SN(C)C(=O)Oc1cccc2c1OC(C)(C)C2` [Carbosulfan], the LC retention time was 13.8 min.

As to `CC1=C(C(=O)Nc2ccccc2)S(=O)(=O)CCO1` [Carboxin-Oxy], the LC retention time is 5.59 min.

Take `CC1=C(C(=O)Nc2ccccc2)SCCO1` [Carboxin]: the LC retention time was 7.46 min.

On to `CCCCNC(=O)NS(=O)(=O)c1ccc(N)cc1` [Carbutamide], for which the LC retention time was 5.36 min.

For `CC(C)(C)NCC(O)c1ccc(O)c(NC(N)=O)c1` (centres undefined) [Carbuterol], the LC retention time was 2.89 min.

Turning to `CCOC(=O)C(Cl)Cc1cc(-n2nc(C)n(C(F)F)c2=O)c(F)cc1Cl` (centres undefined) [Carfentrazone-ethyl], the LC retention time was 10.7 min.

Turning to `CCCC(C)(COC(N)=O)COC(=O)NC(C)C` (centres undefined) [Carisoprodol], the LC retention time was 7.99 min.

As for `CC(C)(C)NCC(O)COc1cccc2c1CCC(=O)N2` (centres undefined) [Carteolol], the LC retention time is 3.91 min.

As for `CCCNC(C)C(=O)Nc1c(C)csc1C(=O)OC` (centres undefined) [Carticaine (Articaine)], the LC retention time was 4.69 min.

In the case of `COc1ccccc1OCCNCC(O)COc1cccc2[nH]c3ccccc3c12` (centres undefined) [Carvedilol], the LC retention time is 6.91 min.

In the case of `CC(N)C(O)c1ccccc1` (centres undefined) [Cathine / Ephedrine-Nor (Cathin. Phenylpropanolamine)], the LC retention time was 3.68 min.

Turning to `CC(C(=O)c1ccccc1)N(C)C` (centres undefined) [Cathinone-Dimethyl], the LC retention time was 3.64 min.

`CCNC(C)C(=O)c1ccccc1` (centres undefined) [Cathinone-Ethyl]: the LC retention time was 3.93 min.

Turning to `CC(N)C(=O)c1ccccc1` (centres undefined) [Cathinone], the LC retention time is 3.59 min.

For `NC(C(=O)NC1C(=O)N2C(C(=O)O)=C(Cl)CSC12)c1ccccc1` (centres undefined) [Cefaclor], the LC retention time was 4.09 min.

Take `CC1=C(C(=O)O)N2C(=O)C(NC(=O)C(N)c3ccc(O)cc3)C2SC1` (centres undefined) [Cefadroxil]: the LC retention time was 2.84 min.

On to `CC1=C(C(=O)O)N2C(=O)C(NC(=O)C(N)c3ccccc3)C2SC1` (centres undefined) [Cefalexin], for which the LC retention time is 4.08 min.

`NC(=O)c1cc[n+](CC2=C(C(=O)[O-])N3C(=O)C(NC(=O)Cc4cccs4)C3SC2)cc1` (centres undefined) [Cefalonium]: the LC retention time was 4.03 min.

With `Cc1nnc(SCC2=C(C(=O)O)N3C(=O)C(NC(=O)Cn4cnnn4)C3SC2)s1` (centres undefined) [Cefazolin], the LC retention time was 4.16 min.

Consider `CON=C(C(=O)NC1C(=O)N2C(C(=O)[O-])=C(C[n+]3cccc4c3CCCC4)CSC12)c1csc(N)n1` (centres undefined) [Cefquinome], for which the LC retention time is 3.76 min.

With `CC(C)(ON=C(C(=O)NC1C(=O)N2C(C(=O)[O-])=C(C[n+]3ccccc3)CSC12)c1csc(N)n1)C(=O)O` (centres undefined) [Ceftazidime], the LC retention time is 3.38 min.

With `CON=C(C(=O)NC1C(=O)N2C(C(=O)O)=C(CSC(=O)c3ccco3)CSC12)c1csc(N)n1` (centres undefined) [Ceftiofur], the LC retention time was 5.44 min.

With `COCc1c(C(C)C)nc(C(C)C)c(C=CC(O)CC(O)CC(=O)O)c1-c1ccc(F)cc1` (centres undefined) [Cerivastatin], the LC retention time is 11.6 min.

Take `COC(=O)COCCN1CCN(C(c2ccccc2)c2ccc(Cl)cc2)CC1` (centres undefined) [Cetirizine-Methyl ester]: the LC retention time was 8.86 min.

On to `O=C(O)COCC[N+]1([O-])CCN(C(c2ccccc2)c2ccc(Cl)cc2)CC1` (centres undefined) [Cetirizine-N-Oxide], for which the LC retention time was 9.13 min.

For `O=C(O)COCCN1CCN(C(c2ccccc2)c2ccc(Cl)cc2)CC1` (centres undefined) [Cetirizine], the LC retention time was 8.79 min.

For `CNC(=O)c1cc(Cl)cc(C)c1NC(=O)c1cc(Br)nn1-c1ncccc1Cl` [Chlorantraniliprole], the LC retention time was 8.7 min.

`Nc1ncnc(Nc2ccc(Cl)cc2)n1` [Chlorazanil]: the LC retention time is 7.46 min.

Turning to `Cc1ccccc1CN1CCN(CCOC(c2ccccc2)c2ccccc2Cl)CC1` (centres undefined) [Chlorbenzoxamine], the LC retention time was 10.8 min.

On to `CON(C)C(=O)Nc1ccc(Br)c(Cl)c1` [Chlorbromuron], for which the LC retention time is 9.55 min.

As for `C#CC(C)OC(=O)Nc1cccc(Cl)c1` (centres undefined) [Chlorbufam], the LC retention time was 9.27 min.

On to `CN1CCN(C(c2ccccc2)c2ccc(Cl)cc2)CC1` (centres undefined) [Chlorcyclizine], for which the LC retention time was 8.28 min.

`N=C1CN(O)C(c2ccccc2)=c2cc(Cl)ccc2=N1` [Chlordiazepoxide-Desmethyl]: the LC retention time is 8.27 min.

Take `CN=C1CN(O)C(c2ccccc2)=c2cc(Cl)ccc2=N1` [Chlordiazepoxide]: the LC retention time was 8.79 min.

As for `Cc1cc(Cl)ccc1N=CN(C)C` [Chlordimeform], the LC retention time was 4.64 min.

Regarding `CCCCOC(=O)C1C(C(=O)OCCCC)C2(Cl)C(Cl)=C(Cl)C1(Cl)C2(Cl)Cl` (centres undefined) [Chlorendate-Dibutyl], the LC retention time was 14 min.

As for `CCOCn1c(-c2ccc(Cl)cc2)c(C#N)c(Br)c1C(F)(F)F` [Chlorfenapyr], the LC retention time is 11.8 min.

Regarding `COC(=O)C(Cl)Cc1ccc(Cl)cc1` (centres undefined) [Chlorfenprop-methyl], the LC retention time is 10.2 min.

For `O=S(=O)(Oc1ccc(Cl)cc1)c1ccc(Cl)cc1` [Chlorfenson.Ovex.chlorofenizon.ephirsulfonate.ovatron], the LC retention time was 11.1 min.

As for `O=C(NC(=O)c1c(F)cccc1F)Nc1cc(Cl)c(Oc2ncc(C(F)(F)F)cc2Cl)c(Cl)c1` [Chlorfluazuron], the LC retention time was 13.2 min.

For `Cn1ncc(N)c(Cl)c1=O` [Chloridazone-methyl-desphenyl], the LC retention time is 3.53 min.

Take `Nc1cnn(-c2ccccc2)c(=O)c1Cl` [Chloridazone]: the LC retention time is 5.34 min.

Turning to `CCOC(=O)c1ccccc1S(=O)(=O)NC(=O)Nc1nc(Cl)cc(OC)n1` [Chlorimuronethyl], the LC retention time was 9.3 min.

For the compound `C[N+](C)(C)CCCl` [Chlormequat], the LC retention time was 1.67 min.

As for `CN1C(=O)CCS(=O)(=O)C1c1ccc(Cl)cc1` (centres undefined) [Chlormezanone], the LC retention time was 5.94 min.

Regarding `CCOC(=O)C(O)(c1ccc(Cl)cc1)c1ccc(Cl)cc1` [Chlorobenzilate], the LC retention time is 11.7 min.

As to `CCCc1nn(C)c2c(=O)[nH]c(-c3cc(C(=O)CCl)ccc3OCC)nc12` [Chlorodenafil], the LC retention time was 10.2 min.

With `O=C1c2ccccc2C(=O)C1C(=O)C(c1ccccc1)c1ccc(Cl)cc1` (centres undefined) [Chlorophacinone], the LC retention time is 9.74 min.

Regarding `Clc1cccc(N2CCNCC2)c1` [Chlorophenylpiperazine (meta-)<U+00A0>(mCPP)], the LC retention time is 5.42 min.

As for `COC(=O)C1Cc2c([nH]c3ccccc23)C(c2ccc3c(c2)OCO3)N1C(=O)CCl` (centres undefined) [Chloropretadalafil], the LC retention time is 9.34 min.

`CC(C)OC(=O)C(O)(c1ccc(Cl)cc1)c1ccc(Cl)cc1` [Chloropropylate]: the LC retention time is 12.2 min.

As for `CN(C)CCN(Cc1ccc(Cl)cc1)c1ccccn1` [Chloropyramine], the LC retention time was 7.09 min.
